Data: the supplement of paper PMC10307832

Experiments:
Test in all cases: relative viability (nuclei count vs DMSO), 5 days (fraction); higher = more cells survive
[1] = compound: Cc1ccc(C(=O)N(CCCN)[C@@H](c2nc3cc(Cl)ccc3c(=O)n2Cc2ccccc2)C(C)C)cc1 [Ispinesib] + N=C(N)NC(=N)NCCc1ccccc1 [Phenformin] (partner 250 µM)
Outline: (§1)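 Relative viability is defined as nuclei in treated wells over nuclei in vehicle wells. Duplicate plates were run and medians reported. Lung cancer cell lines in 1536-well plates were dosed by pin tool one day after seeding, with one drug or with a fixed anchor-drug dose plus five library-drug doses (not always all listed) in √10 steps, and nuclei were counted after 5 days.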

[2] = compound: Cc1ccc(C(=O)N(CCCN)[C@@H](c2nc3cc(Cl)ccc3c(=O)n2Cc2ccccc2)C(C)C)cc1 [Ispinesib] + O=C(c1cc(Cc2n[nH]c(=O)c3ccccc23)ccc1F)N1CCN(C(=O)C2CC2)CC1 [Olaparib] (partner 8 µM)
Outline: as §1

[3] = compound: C[C@]1(O)C[C@@H](c2nc(-c3ccc4ccc(-c5ccccc5)nc4c3)c3c(N)nccn32)C1 [Linsitinib] + COc1cccc2cc(-c3nc([C@H]4CC[C@H](C(=O)O)CC4)n4ncnc(N)c34)[nH]c12 [OSI-027] (partner 0.5 µM)
Outline: as §1

[4] = compound: C[C@]1(O)C[C@@H](c2nc(-c3ccc4ccc(-c5ccccc5)nc4c3)c3c(N)nccn32)C1 [Linsitinib] + CCNC(=O)c1noc(-c2cc(C(C)C)c(O)cc2O)c1-c1ccc(CN2CCOCC2)cc1 [Luminespib] (partner 0.01 µM)
Outline: as §1

Cell Line: UMC-11
- relative viability ([1]; first compound 0.001 µM): 0.346
- relative viability ([1]; first compound 0.003162 µM): 0.327
- relative viability ([1]; first compound 0.01 µM): 0.286
- relative viability ([1]; first compound 0.03162 µM): 0.179
- relative viability ([1]; first compound 0.1 µM): 0.193
- relative viability ([2]; first compound 0.001 µM): 0.693
- relative viability ([2]; first compound 0.003162 µM): 0.389
- relative viability ([2]; first compound 0.01 µM): 0.345
- relative viability ([2]; first compound 0.03162 µM): 0.325
- relative viability ([2]; first compound 0.1 µM): 0.272
- relative viability ([3]; first compound 0.01 µM): 0.468
- relative viability ([3]; first compound 0.03162 µM): 0.433
- relative viability ([3]; first compound 0.1 µM): 0.552
- relative viability ([3]; first compound 1 µM): 0.432
- relative viability ([4]; first compound 0.01 µM): 1.04
- relative viability ([4]; first compound 0.03162 µM): 0.717
- relative viability ([4]; first compound 0.1 µM): 0.992
- relative viability ([4]; first compound 1 µM): 1.02
